Tests used:
[1] = tested on: spasticity; conditions: Baker 2001; cited from earlier work
[2] = tested on: neuropathic pain; conditions: rats; WO 02/087569; cited from earlier work
[3] = tested on: acute thermal nociception; conditions: rats; WO 02/087569; cited from earlier work
[4] = biological target: T1, rat FAAH (Rattus norvegicus, UniProt P97612); test: Assay Method 2: FAAH assay, 3H-anandamide hydrolysis in homogenate of cells transfected with rat FAAH; type: biochemical; conditions: cell homogenate, 3H-AEA 80 nM, 1 h at rt, average of results
T1 construct: expressed in transfected cells; crude homogenate
T1 sequence (P97612 1-579): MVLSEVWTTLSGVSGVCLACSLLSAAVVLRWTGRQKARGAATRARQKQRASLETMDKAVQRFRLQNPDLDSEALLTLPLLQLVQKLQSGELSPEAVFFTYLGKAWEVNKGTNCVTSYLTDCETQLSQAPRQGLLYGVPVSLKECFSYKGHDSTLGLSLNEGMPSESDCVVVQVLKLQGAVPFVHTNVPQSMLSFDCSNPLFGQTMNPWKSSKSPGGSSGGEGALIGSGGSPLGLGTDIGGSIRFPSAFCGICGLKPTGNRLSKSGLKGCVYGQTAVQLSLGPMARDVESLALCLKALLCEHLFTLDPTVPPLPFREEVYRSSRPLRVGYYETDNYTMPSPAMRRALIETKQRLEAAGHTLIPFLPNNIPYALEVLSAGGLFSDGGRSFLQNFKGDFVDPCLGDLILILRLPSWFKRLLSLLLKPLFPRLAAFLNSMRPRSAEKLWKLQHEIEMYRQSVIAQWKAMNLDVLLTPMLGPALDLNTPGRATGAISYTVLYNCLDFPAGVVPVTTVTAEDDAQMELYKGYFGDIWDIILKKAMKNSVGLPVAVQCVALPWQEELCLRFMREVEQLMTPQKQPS
Outline: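 Homogenate of SK-N-MC cells stably transfected with rat FAAH, in pH 9 Tris/EDTA/glycerol/Triton buffer, incubated 1 h at rt with 80 nM final [1-3H-ethanolamine]anandamide. Released 3H-ethanolamine separated from substrate on activated charcoal filters by centrifugation and quantified by scintillation counting.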

[5] = biological target: T2, FAAH (Homo sapiens, UniProt O00519); test: Assay Method 1: FAAH assay, 3H-anandamide hydrolysis in homogenate of cells transfected with human FAAH; type: biochemical; set-up: expressed in transfected cells; crude homogenate (T84 cell pellets named as alternative); conditions: cell homogenate, 3H-AEA 80 nM, 1 h at rt, average of results
T2 sequence (O00519 1-579): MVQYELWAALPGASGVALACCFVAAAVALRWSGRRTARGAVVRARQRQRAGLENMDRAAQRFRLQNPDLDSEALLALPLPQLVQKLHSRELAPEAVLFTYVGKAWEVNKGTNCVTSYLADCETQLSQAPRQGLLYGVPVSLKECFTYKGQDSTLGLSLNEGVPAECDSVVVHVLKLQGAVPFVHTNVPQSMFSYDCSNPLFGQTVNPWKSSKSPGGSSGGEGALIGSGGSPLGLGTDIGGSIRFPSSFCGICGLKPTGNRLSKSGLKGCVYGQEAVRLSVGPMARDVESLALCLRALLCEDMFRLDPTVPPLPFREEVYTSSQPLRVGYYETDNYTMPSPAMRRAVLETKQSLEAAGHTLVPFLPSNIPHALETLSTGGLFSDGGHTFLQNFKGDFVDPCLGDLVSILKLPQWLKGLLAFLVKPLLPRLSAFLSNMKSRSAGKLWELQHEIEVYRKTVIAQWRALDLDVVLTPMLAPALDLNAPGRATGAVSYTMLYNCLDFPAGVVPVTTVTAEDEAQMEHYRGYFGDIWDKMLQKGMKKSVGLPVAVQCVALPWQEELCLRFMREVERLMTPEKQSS
Outline: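 Homogenates of SK-N-MC cells stably transfected with human FAAH (or T84 cells) in pH 9 Tris/EDTA/glycerol/Triton buffer, incubated with compound and 80 nM final ^3H-anandamide for 1 h at rt. Released ^3H-ethanolamine separated through activated charcoal by centrifugation and counted by scintillation.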

[6] = tested on: thermal nociception; conditions: cited from earlier work
[7] = biological target: T2, FAAH; conditions: reported; cited from earlier work
[8] = tested on: thermal nociception; conditions: rats; WO 04/033652; cited from earlier work
[9] = tested on: anxiety; conditions: rats; Kathuria 2003; cited from earlier work
[10] = Kathuria 2003; cited from earlier work

SMILES	IC50 [4]	IC50 [5]	other results
CCCCCCCCCCCCCCCCS(=O)(=O)F [AM374]	–	–	spasticity in CREAE mice [1]: significantly reduce spasticity
Cc1nc(-c2ccccc2)c(-c2ccccc2)n1CCCCCCNC(=O)Oc1ccccc1F [BMS-1]	–	–	analgesic effect in Chung spinal nerve ligation model [2]: analgesic effect; analgesic effect in Hargraves test [3]: analgesic effect
O=C(Nc1cccc2nccn12)N1CCC(Cc2cccc(Oc3ccc(F)cc3)c2)C1 (stereo not drawn) [Example 76, 3-[3-(4-Fluoro-phenoxy)-benzyl]-pyrrolidine-1-carboxylic acid imidazo[1,2-a]pyridin-5-ylamide]	70 nM	400 nM	–
O=C(Nc1cccnc1)N1CCC(CCc2ccc3c(c2)OC(F)(F)O3)C1 (stereo not drawn) [Example 77, 3-[2-(2,2-Difluoro-benzo[1,3]dioxol-5-yl)-ethyl]-pyrrolidine-1-carboxylic acid pyridin-3-ylamide]	7000 nM	5000 nM	–
O=C(Nc1cnccc1Cl)N1CCC(CCc2ccc3c(c2)OC(F)(F)O3)C1 (stereo not drawn) [Example 78, 3-[2-(2,2-Difluoro-benzo[1,3]dioxol-5-yl)-ethyl]-pyrrolidine-1-carboxylic acid (4-chloro-pyridin-3-yl)-amide]	320 nM	230 nM	–
O=C(CCCCCCc1ccccc1)c1ncc(-c2ccccn2)o1 [OL-135]	–	–	analgesic activity in hot plate test ([6]; rats, WO 04/033652): analgesic activity; inhibition of FAAH [7]: potent inhibitor; analgesic activity in tail emersion test [8]: analgesic activity
NC(=O)c1cccc(-c2cccc(OC(=O)NC3CCCCC3)c2)c1 [URB-597]	–	–	efficacy in zero plus maze model of anxiety [9]: efficacy; analgesic efficacy in rat hot plate test ([6]; rat, Kathuria 2003): analgesic efficacy; analgesic efficacy in rat formalin test [10]: analgesic efficacy

Further lines, with some results ahead:

IC50 [4]	IC50 [5]	SMILES	other results
1100 nM	1200 nM	O=C(Nc1cccnc1)N1CCC(Cc2cccc(Oc3ccc(F)cc3)c2)C1 (stereo not drawn) [Example 74, 3-[3-(4-Fluoro-phenoxy)-benzyl]-pyrrolidine-1-carboxylic acid pyridin-3-ylamide]	–
30 nM	45 nM	O=C(Nc1cnccc1Cl)N1CCC(Cc2cccc(Oc3ccc(F)cc3)c2)C1 (stereo not drawn) [Example 75, 3-[3-(4-Fluoro-phenoxy)-benzyl]-pyrrolidine-1-carboxylic acid (4-chloro-pyridin-3-yl)-amide]	–
48 nM	58 nM	O=C(Nc1cccnc1)N1CCC(CCc2cccc(Oc3ccc(F)cc3)c2)C1 (stereo not drawn) [Example 79, 3-{2-[3-(4-Fluoro-phenoxy)-phenyl]-ethyl}-pyrrolidine-1-carboxylic acid pyridin-3-ylamide]	–

From US8901111B2, “Aryl-substituted heterocyclic urea modulators of fatty acid amide hydrolase” (Janssen Pharmaceutica NV, priority 2009, dated 2014)
